Earlier results as cited in patent US20210228483A1, “LOW GLYCEMIC GUMMY COMPOSITION AND METHODS OF MAKING AND USING THEREOF” (Seattle Gummy Company, priority 2018, published 2021).

Columns and labels:
[1] = test system: blood glucose levels; conditions: as shown in FIG. 3 (trehalose) and FIG. 4 (isomaltulose)
[2] = in vivo

OC[C@H]1O[C@H](OC[C@H]2OC(O)(CO)[C@@H](O)[C@@H]2O)[C@H](O)[C@@H](O)[C@@H]1O (stereo partly shown) [isomaltulose]
spike in glucose levels [1]: does not cause a spike in glucose levels
GI value (glycemic index) [2]: about 30

OC[C@H]1O[C@@](CO)(O[C@H]2O[C@H](CO)[C@@H](O)[C@H](O)[C@H]2O)[C@@H](O)[C@@H]1O [sucrose, reference compound]
GI value (glycemic index) [2]: 63

OC[C@H]1O[C@H](O[C@H]2O[C@H](CO)[C@@H](O)[C@H](O)[C@H]2O)[C@H](O)[C@@H](O)[C@@H]1O [trehalose]
spike in glucose levels [1]: does not cause a spike in glucose levels
